# In patent US20120244567A1, “HUMAN EMBRYONIC STEM CELLS FOR HIGH THROUGHOUT DRUG SCREENING” (BUCK INSTITUTE FOR RESEARCH ON AGING, priority 2009, published 2012):
# Where a name gives a salt, the structure may show the parent alone.
# Tested on: NSCs
# Method: RNAs isolated from NSCs and neurons with and without drug treatments were hybridized to Illumina HumanRef-8 BeadChip (Illumina, Inc., San Diego, Calif., performed by Microarray core facility at the Burnham Institute for Medical Research). The Illumina array data were normalized by the quantile method, and then transformed log 2 ratio values for a zero mean for expression values of each gene across all samples. The statistical and bioinformatics analyses were conducted by using R and the bioconductor package (www.bioconductor.org). The gene set enrichment analysis was conducted using the GSEA software (www.broad.mit.edu/gsea).
# The comparative results are then measured by a non-parametric, running sum statistic termed the enrichment score. The enrichment score significance is assessed by 1,000 permutation tests to compute the enrichment p-value.
smiles,measurement,setting,value
CCCCc1oc2ccccc2c1C(=O)c1cc(I)c(OCCN(CC)CC)c(I)c1 [Amiodarone Hydrochloride],Nes: Acetyltransferase Activity,Enriched In Untreated Nscs,−1.239
same,Nes: Amine Transmembrane Transporter Activity,Enriched In Untreated Nscs,−0.9002
same,Nes: Amino Acid Transmembrane Transporter Activity,Enriched In Untreated Nscs,−0.9455
same,Nes: Atp Dependent Helicase Activity,Enriched In Untreated Nscs,−1.499
same,Nes: Atp Dependent Rna Helicase Activity,Enriched In Untreated Nscs,−1.626
same,Nes: Atpase Activity,Enriched In Untreated Nscs,−0.8253
same,Nes: Atpase Activity Coupled,Enriched In Untreated Nscs,−1.068
same,Nes: Atpase Activity Coupled To Movement Of Substances,Enriched In Untreated Nscs,−0.3743
same,Nes: Atpase Activity Coupled To Transmembrane Movement Of Ions,Enriched In Untreated Nscs,−0.543
same,Nes: Calcium Ion Binding,Enriched In Untreated Nscs,−1.593
same,Nes: Carbohydrate Binding,Enriched In Untreated Nscs,−0.9729
same,Nes: Carboxylic Acid Transmembrane Transporter Activity,Enriched In Untreated Nscs,−0.8373
same,Nes: Cation Binding,Enriched In Untreated Nscs,−1.033
same,Nes: Chromatin Binding,Enriched In Untreated Nscs,−1.015
same,Nes: Cofactor Binding,Enriched In Untreated Nscs,−0.9326
same,Nes: Cytokine Activity,Enriched In Untreated Nscs,−1.381
same,Nes: Cytokine Binding,Enriched In Untreated Nscs,−1.174
same,Nes: Damaged Dna Binding,Enriched In Untreated Nscs,−1.1681
same,Nes: Dna Dependent Atpase Activity,Enriched In Untreated Nscs,−1.2
same,Nes: Dna Helicase Activity,Enriched In Untreated Nscs,−0.5542
same,Nes: Double Stranded Dna Binding,Enriched In Untreated Nscs,−0.4584
same,Nes: Electron Carrier Activity,Enriched In Untreated Nscs,−0.6307
same,Nes: Enzyme Activator Activity,Enriched In Untreated Nscs,−1.024
same,Nes: Exopeptidase Activity,Enriched In Untreated Nscs,−0.915
same,Nes: Glycosaminoglycan Binding,Enriched In Untreated Nscs,−0.9127
same,Nes: Growth Factor Activity,Enriched In Untreated Nscs,−1.254
same,Nes: Gtp Binding,Enriched In Untreated Nscs,−0.9695
same,Nes: Gtpase Activity,Enriched In Untreated Nscs,−0.811
same,Nes: Guanyl Nucleotide Binding,Enriched In Untreated Nscs,−1.265
same,Nes: Helicase Activity,Enriched In Untreated Nscs,−1.374
same,Nes: Heparin Binding,Enriched In Untreated Nscs,−1.015
same,Nes: Hormone Activity,Enriched In Untreated Nscs,−1.196
same,Nes: Hydrogen Ion Transmembrane Transporter Activity,Enriched In Untreated Nscs,−1.077
same,Nes: Hydrolase Activity Acting On Acid Anhydrides,Enriched In Untreated Nscs,−0.9907
same,Nes: Hydrolase Activity Acting On Acid Anhydrides Catalyzing Transmembrane Movement Of Substances,Enriched In Untreated Nscs,−0.4097
same,Nes: Hydrolase Activity Acting On Carbon Nitrogen But Not Peptide Bonds,Enriched In Untreated Nscs,−0.7823
same,Nes: Ion Binding,Enriched In Untreated Nscs,−1.044
same,Nes: Kinase Activity,Enriched In Untreated Nscs,−0.9611
same,Nes: Kinase Inhibitor Activity,Enriched In Untreated Nscs,−0.8002
same,Nes: Kinase Regulator Activity,Enriched In Untreated Nscs,−0.9286
same,Nes: Lipase Activity,Enriched In Untreated Nscs,−1.055
same,Nes: Lipid Binding,Enriched In Untreated Nscs,−1.147
same,Nes: Magnesium Ion Binding,Enriched In Untreated Nscs,−1.1144
same,Nes: Metallopeptidase Activity,Enriched In Untreated Nscs,−1.06
same,Nes: Microtubule Binding,Enriched In Untreated Nscs,−0.7143
same,Nes: N Acetyltransferase Activity,Enriched In Untreated Nscs,−1.282
same,Nes: N Acyltransferase Activity,Enriched In Untreated Nscs,−1.201
same,Nes: Nucleobase Nucleoside Nucleotide Kinase Activity,Enriched In Untreated Nscs,−1.417
same,Nes: Nucleoside Triphosphatase Activity,Enriched In Untreated Nscs,−0.8995
same,Nes: Nucleotidyltransferase Activity,Enriched In Untreated Nscs,−0.6782
same,Nes: Organic Acid Transmembrane Transporter Activity,Enriched In Untreated Nscs,−0.8193
same,Nes: Oxidoreductase Activity Acting On Nadh Or Nadph,Enriched In Untreated Nscs,−1.092
same,Nes: Oxidoreductase Activity Acting On The Ch Ch Group Of Donors,Enriched In Untreated Nscs,−1.2992
same,Nes: Pattern Binding,Enriched In Untreated Nscs,−0.8999
same,Nes: Peptide Binding,Enriched In Untreated Nscs,−0.9386
same,Nes: Phospholipid Binding,Enriched In Untreated Nscs,−1.255
same,Nes: Phosphotransferase Activity Alcohol Group As Acceptor,Enriched In Untreated Nscs,−0.929
same,Nes: Phosphotransferase Activity Phosphate Group As Acceptor,Enriched In Untreated Nscs,−1.665
same,Nes: Polysaccharide Binding,Enriched In Untreated Nscs,−0.9675
same,Nes: Primary Active Transmembrane Transporter Activity,Enriched In Untreated Nscs,−0.3858
same,Nes: Protein Dimerization Activity,Enriched In Untreated Nscs,−1.017
same,Nes: Protein Heterodimerization Activity,Enriched In Untreated Nscs,−1.3399
same,Nes: Protein Homodimerization Activity,Enriched In Untreated Nscs,−0.801
same,Nes: Protein Kinase Inhibitor Activity,Enriched In Untreated Nscs,−0.7805
same,Nes: Protein Kinase Regulator Activity,Enriched In Untreated Nscs,−0.8809
same,Nes: Protein N Terminus Binding,Enriched In Untreated Nscs,−0.5542
same,Nes: Pyrophosphatase Activity,Enriched In Untreated Nscs,−1.053
same,Nes: Ras Gtpase Binding,Enriched In Untreated Nscs,−0.9567
same,Nes: Receptor Activity,Enriched In Untreated Nscs,−1.044
same,Nes: Receptor Binding,Enriched In Untreated Nscs,−1.0604
same,Nes: Receptor Signaling Protein Serine Threonine Kinase Activity,Enriched In Untreated Nscs,−0.7954
same,Nes: Rhodopsin Like Receptor Activity,Enriched In Untreated Nscs,−1.049
same,Nes: Rna Binding,Enriched In Untreated Nscs,−0.6659
same,Nes: Rna Dependent Atpase Activity,Enriched In Untreated Nscs,−1.8058
same,Nes: Rna Helicase Activity,Enriched In Untreated Nscs,−1.68
same,Nes: Signal Sequence Binding,Enriched In Untreated Nscs,−0.8286
same,Nes: Structural Constituent Of Ribosome,Enriched In Untreated Nscs,−0.6343
same,Nes: Transferase Activity Transferring Acyl Groups,Enriched In Untreated Nscs,−0.9146
same,Nes: Transferase Activity Transferring Hexosyl Groups,Enriched In Untreated Nscs,−0.8814
same,Nes: Transferase Activity Transferring Phosphorus Containing Groups,Enriched In Untreated Nscs,−1.002
same,Nes: Transmembrane Receptor Activity,Enriched In Untreated Nscs,−1.132
same,Nes: Tubulin Binding,Enriched In Untreated Nscs,−1.169
same,Nes: Udp Glycosyltransferase Activity,Enriched In Untreated Nscs,−0.9459
same,Nes: Acid Amino Acid Ligase Activity,enriched in treated NSCs,0.7777
same,Nes: Actin Binding,enriched in treated NSCs,0.7455
same,Nes: Actin Filament Binding,enriched in treated NSCs,1.029
same,Nes: Active Transmembrane Transporter Activity,enriched in treated NSCs,0.8495
same,Nes: Adenyl Nucleotide Binding,enriched in treated NSCs,0.9485
same,Nes: Adenyl Ribonucleotide Binding,enriched in treated NSCs,0.9696
same,Nes: Anion Transmembrane Transporter Activity,enriched in treated NSCs,1.216
same,Nes: Atp Binding,enriched in treated NSCs,0.8813
same,Nes: Calmodulin Binding,enriched in treated NSCs,0.7204
same,Nes: Carbon Oxygen Lyase Activity,enriched in treated NSCs,0.4048
same,Nes: Cation Channel Activity,enriched in treated NSCs,0.9023
same,Nes: Cation Transmembrane Transporter Activity,enriched in treated NSCs,1.013
same,Nes: Cysteine Type Endopeptidase Activity,enriched in treated NSCs,1.621
same,Nes: Cysteine Type Peptidase Activity,enriched in treated NSCs,1.575
same,Nes: Deoxyribonuclease Activity,enriched in treated NSCs,1.357
same,Nes: Endonuclease Activity,enriched in treated NSCs,0.5289
